# Experiments:
# [1] = test system: rat glioblastoma tumor (C6) xenografts; experiment: Antitumor efficacy against rat glioblastoma tumor (C6) xenografts; type: in vivo, female swiss nude mice; settings: intravenous, 75 mg/kg (qd5/2/qd5)
# Source text: Antitumor efficacy of Compound 2 against rat glioblastoma tumor (C6) xenografts in female swiss nude mice was accomplished as described above.
# [2] = test system: HT-29, SF-268, PC-3, MDA-MB-231; experiment: Average GI50 over the four cell lines, method (a); type: cell-based; settings: method (a); values > 30 not considered; read-out: Average (GI50 μM)
# Protocol: Compounds were dissolved at 10 mM in DMSO. Dilution in vehicle to concentrations of 30, 10, 3, 1 and 0.3 μM were prepared immediately before assays. Depending on the cell line's growth characteristics, 4000-10000 cells were plated in two 96-wells pates (day 0) and incubated for 16 hours. The following day, propidium iodide was added to one of the two plates and fluorescence measured (Tz). Test compounds were added to the second plate, as well as vehicle control, and cells further incubated for 96 hours. Each compound was tested at each concentration and in triplicates. The equivalent cell number was determined after adding propidium iodide by measuring the signal by fluorescence (C for control).
SMILES,"NOAEL (in vivo; CD-1 nu/nu, mouse, in vivo, ip) [mg/kg]","NOAEL (in vivo; CD-1 nu/nu, mouse, in vivo, iv) [mg/kg]","MTD (in vivo; CD-1 nu/nu, mouse, in vivo, ip, acute) [mg/kg]",weight losses (in vivo; for several days post-injection),Antitumor efficacy [1],GI50 [2] [µM]
"CC(C)=CCC/C(C)=C/CC/C(C)=C/CN1C(=O)c2cccc(O)c2N(C)c2c(O)cc(O)cc21 [Compound 2, 10-farnesyl-4,6,8-trihydroxy-5-methyl-5,10-dihydro-dibenzo[b,e][1,4]diazepin-11-one]",30,75,≥ 50,about 7%,Significant efficacy,
"CC(C)=CCC/C(C)=C/CC/C(C)=C/CN1C(=O)c2cccc(O)c2Nc2c(O)cc(O)cc21 [Compound 1, 10-farnesyl-4,6,8-trihydroxy-5,10-dihydrodibenzo[b,e][1,4]diazepin-11-one]",,,,,,4.23

# Reference: patent US20060079512A1, “Dibenzodiazepinone analogues, processes for their production and their use as pharmaceuticals” (Ecopia BioSciences, Inc., priority 2003, published 2006)
